Earlier results, collected in US20230167447A1, “Compositions for FNIP1/FNIP2 Gene Modulation and Methods Thereof” (Genetic Intelligence, Inc, priority 2021, published 2023).

System: ALS patients

For CC1=NN(c2ccccc2)C(=O)C1 [Edaravone, edaravone], the “decline in physical function in ALS patients” value is given as “slows the decline in physical function” and the “subset of patients for which effective” value is given as “around 7%”.
